Test results from US9493453B2, “Piperazinyl pyrimidine derivatives, preparation method and use thereof” (INSTITUTE OF PHARMACOLOGY AND TOXICOLOGY ACADEMY OF …, priority 2012, dated 2016).
Like-named read-outs stand apart in the source and are kept apart here.

Columns and labels:
CCR4 receptor = biological target: T1, CCR4 receptor (Homo sapiens, UniProt P51679); assay: Inhibition of MDC/TARC/C27 mediated chemotactic response of CCR4-transfected HEK293 cells (Boyden chamber); type: cell-based; details: chemotactic inhibition rate, compound 1 μM, HEK293 cells transfected with pCDI-CCR4, 5 hours
T1 construct: cDNA fragments of receptor open reading frame were respectively inserted into pcDI; expressed in transfected cells; host or cells: HEK293 cells, transiently transfected by electroporation with pCDI-CCR4
T1 sequence (P51679 1-360): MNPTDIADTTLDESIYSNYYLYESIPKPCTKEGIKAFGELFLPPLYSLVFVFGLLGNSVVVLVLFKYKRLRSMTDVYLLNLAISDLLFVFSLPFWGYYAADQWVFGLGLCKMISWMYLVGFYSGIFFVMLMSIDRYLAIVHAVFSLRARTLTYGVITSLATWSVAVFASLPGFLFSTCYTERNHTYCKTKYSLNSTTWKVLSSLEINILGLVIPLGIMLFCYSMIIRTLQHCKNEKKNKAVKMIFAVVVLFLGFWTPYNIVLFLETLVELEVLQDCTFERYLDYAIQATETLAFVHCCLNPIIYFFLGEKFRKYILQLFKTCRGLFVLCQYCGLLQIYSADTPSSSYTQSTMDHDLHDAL
Description: Whether or not compounds 1-14 of the present invention can inhibit MDC (Peprotech) mediated chemotactic response of HEK293 cells was studied by using Boyden chamber (Neuro Probe, Inc.).
1. Construction of Receptor Expression Plasmid:
cDNA fragments including human chemokine receptor open reading frame were obtained by the following method: CCR4 receptor was cloned from a cDNA library of K562 cells through polymerase chain reaction (PCR). Primers were designed according to the sequence of Gen-Bank™ accession: CCR4 (NM_005508.2). cDNA fragments of receptor open reading frame were respectively inserted into pcDI (vector transformed in the chamber: eukaryotic expression vector obtained by replacing a BglII KpnI fragment of pcDNA3 (Invitrogen Corporation) plasmid with a BglII KpnI fragment of pCI (Promega Corporation) plasmid) expression vector so as to make them effectively express in HEK293 cells.
HEK293 cells were cultured in RPMI 1640 (Life Technologies, Inc.) containing 10% heat-inactivated fetal bovine serum, 100 U/mL penicillin, 100 μg/mL streptomycin. Each 4×10^6 HEK293 cells/400 μL were transiently transfected through electroporation with 15 μg chemokine receptor expression plasmids, under the condition of 120 V for 20 ms, the instrument used being electric pulse generator (Electro Square porator ECM 830, BTX, San Diego, Calif.). After 36-48 hr, chemotactic assay was carried out.
3. The Inhibitory Effect on MDC/TARC/C27 Mediated Chemotactic Response of HEK293 Cells
Chemokines MDC/TARC/C27 were diluted to 10 ng/mL with RPMI1640 (Life Technologies, Inc.), 0.1% BSA (Sigma), and added to lower holes in a 48-hole chemotactic chamber, 27.5 μL each hole. Eukaryotic expression plasmids pCDI-CCR4 were electrically shifted to HEK293 cells, and cultured normally for 36 hr. The cells were digested, re-suspended with RPMI1640, 10% FBS (Life Technologies, Inc.), and subjected to rotary incubation at 37° C. for 6.5 hours. The cells were washed twice with RPMI1640, and suspended in RPMI1640, 0.1% BSA, with a final concentration of 1×10^6/mL. The cells and the candidate compound dissolved in DMSO (Sigma) were subjected to rotary incubation at room temperature for half an hour, the final concentration of the candidate compound being 1 μM, and the final concentration of DMSO being 0.1%, and then added to upper holes in the chemotactic chamber, 55 μL each hole. The two layers were spaced by a polycarbon membrane with pore size of […] (Neuro Probe, Inc.). The chemotactic reaction was carried out in 5% CO2 at 37° C. for 5 hours. There were three groups of control in the experiment, wherein the first group was positive control, in which the transfected cells were directly added to upper holes without incubated with the candidate compound, while chemokines MDC/TARC/C27 were added to lower holes. The second group was negative control, in which the transfected cells were directly added to upper holes without incubated with the candidate compound, while RPMI1640, 0.1% BSA were added to lower holes. The third group was solvent DMSO control of the candidate compound, in which the transfected cells and DMSO were incubated at room temperature, the final concentration of DMSO being 0.1%, while chemokines MDC/TARC/C27 were added to lower holes. After completion of the chemotactic reaction, the membrane was removed, fixed and stained, and, at 400× high magnification, five horizons were randomly selected to count the cells, which were then summed. The ratio of the sum of the numbers of cells in five horizons at high magnification in each experimental group to the sum of the numbers of cells in five horizons at high magnification in the negative control group is obtained as Chemotactic Index (CI). Chemotactic inhibition rate was calculated as follows: […]

mice rhinitis model = assay: Mice rhinitis model experiment (OVA-sensitized BALB/c mice); type: in vivo; details: Example 8 compound 1 μg/Kg
Description: Mice Rhinitis Model Experiment
Female BALB/c mice (6-8 weeks) were sensitized with chicken ovalbumin (OVA, Sigma-Aldrich, St Louis, Mo., USA). The compound of the present invention (for example, the compound of Example 8) was administered to nasal mucosa, at a dose 1 μg/Kg. Glucocorticoid hormonal drug budesonide, a first-line clinical drug, was used as positive control, at a dose 1.28 mg/Kg. Meanwhile, there were provided a normal group wherein the mice were not sensitized and not administered, and an OVA group wherein the mice were sensitized and not administered. The following five indicators were detected: the number of sneezing, the number of nasal scratching within 10 min after administration; IL-4 level in bronchoalveolar lavage fluid; serum IgE level; lung tissue inflammation score. Lung tissue inflammation score was rated according to a single blind method: inflammation was divided into four levels from mild to severe, marked as 0-3 scores: 0 representing no detected inflammation; 1 representing occasional inflammatory cells being visible; 2 representing bronchus or blood vessel being surrounded by eosinophils, but less than five cell layers; 3 representing bronchus or blood vessel being surrounded by a large number of eosinophils, with 5 or more cell layers.

[1] = OVA-sensitized female BALB/c mice, nasal mucosa, budesonide 1.28 mg/Kg, within 10 min after administration
[2] = versus OVA-sensitized group, budesonide 1.28 mg/Kg

## O=C([C@H]1CCCCN1)N1CCN(c2nc(Cl)cc(NCc3ccc(Cl)cc3Cl)n2)CC1 [Compound 8, (R)-{4-{4-chloro-6-[(2,4-dichlorobenzyl)amino]pyrimidin-2-yl}piperazin-1-yl}(piperidin-2-yl)methanone]
CCR4 receptor; chemokine C27 10 ng/mL, read-out: C27 inhibition rate
  inhibition at 1 µM: 69.8%
CCR4 receptor; chemokine MDC 10 ng/mL, read-out: MDC inhibition rate
  inhibition at 1 µM: 79.2%
CCR4 receptor; chemokine TARC 10 ng/mL, read-out: TARC inhibition rate
  inhibition at 1 µM: 60.4%
Mice rhinitis model; IL-4 level in bronchoalveolar lavage fluid, OVA-sensitized mice, budesonide 1.28 mg/Kg
  IL-4: 3.7 ± 0.3 pg/mL
Mice rhinitis model; [1]
  Nasal scratching: 8.0 ± 0.6 times/10 mins
  Sneezing: 29.0 ± 3.5 times/10 mins
Mice rhinitis model; lung tissue inflammation score 0-3, single blind, OVA-sensitized mice, budesonide 1.28 mg/Kg
  Inflammation score: 2.2 ± 0.4
Mice rhinitis model; serum IgE level, OVA-sensitized mice, budesonide 1.28 mg/Kg
  IgE: 2861 ± 49 ng/mL
Mice rhinitis model; versus OVA-sensitized and normal control groups, budesonide 1.28 mg/Kg
  serum IgE level (result in words): higher than that of the normal control group
Mice rhinitis model; [2]
  IL-4 level in bronchoalveolar lavage fluid (result in words): significantly lower than that of the OVA-sensitized group
  lung tissue inflammation score (result in words): lower than that of the OVA-sensitized group
  number of sneezing (result in words): could significantly reduce the number of sneezing
Mice rhinitis model; versus other groups
  number of nasal scratching (result in words): lower than that of any of other groups
